According to US20250304620A1, “ANTIMICROBIAL PEPTIDE AND APPLICATION THEREOF” (priority 2023, published 2025):
≈ marks a conversion by molar mass, not a printed value. Marks after values point to notes of the source that are not given here. Non-standard residues stand in square brackets, D forms with d. Residues, ends and D or L forms follow the SMILES beside them. d2Nal = N[C@H](Cc1ccc2ccccc2c1)C(=O)O; d(hLeu) = CC(C)CC[C@@H](N)C(=O)O

Tests used:
[1] = test system: Salmonella typhimurium ATCC 14028; format: cell-based
Method in brief: (§1)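 Serial twofold peptide dilutions were set up in microdilution format per CLSI, MICs were read, and the procedure was repeated in 5 parallel runs.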

Candida utilis ATCC 9950 = format: cell-based
Method in brief: as §1

[2] = test system: Corynebacterium ATCC 7715; format: cell-based
Method in brief: as §1

Candida krusei ATCC 6258 = format: cell-based
Method in brief: as §1

[3] = test system: Serratia marcescens ATCC 29021; format: cell-based
Method in brief: as §1

[4] = test system: Candida tropicalis ATCC 750; format: cell-based
Method in brief: as §1

[5] = test system: Bacillus subtilis ATCC 6633; format: cell-based
Method in brief: as §1

[6] = test system: Candida albicans ATCC MYA-2876; format: cell-based
Method in brief: as §1

[7] = test system: Trichophyton ATCC MYA-4438; format: cell-based
Method in brief: as §1

[8] = test system: Klebsiella pneumoniae ATCC 700603; format: cell-based
Method in brief: as §1

[9] = test system: Escherichia coli ATCC 25922; format: cell-based
Method in brief: as §1

[10] = test system: Pseudomonas aeruginosa ATCC 27853; format: cell-based
Method in brief: as §1

[11] = test system: Staphylococcus aureus ATCC 25923; format: cell-based
Method in brief: as §1

Enterococcus ATCC 29212 = format: cell-based
Method in brief: as §1

[12] = test system: Candida glabrata ATCC 15126; format: cell-based
Method in brief: as §1

[13] = test system: Shigella flexneri ATCC 12022; test: MIC against clinically common bacterial strain; format: cell-based
Method in brief: as §1

[14] = test system: Staphylococcus aureus (NRS 384); settings: NRS 384, 3 h
Procedure: Trypsin (250 U/mg, pH=8.0) and AMPs (LV-1 to LV-30) were mixed in a ratio of 1:10 (w/w) and added to a reaction buffer (0.2 M sodium phosphate, 1 mM CaCl2), pH 7.5), and then incubated at 37° C. for 3 h.

[15] = test system: Escherichia coli ATCC 25922; test: Oral formulations on mice with systemic bacterial infection; format: in vivo, ICR mice; settings: three times a day for 7 days; for Number of mice that died on each day after infection: day 4 / Number of mice that died on each day after infection: day 5 / Number of mice that died on each day after infection: day 6 / Number of mice that died on each day after infection: day 7 / Number of mice that died on each day after infection: day 8 / Average survival times (Days): n = 10; for Average survival times (Days): observed for 14 d
Method in brief: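 ICR mice of both sexes, 10 per group, infected i.p. with 0.2 mL E. coli ATCC 25922 at 1×10^7 CFU/mL. Compounds gavaged by body weight immediately after infection, three times daily for 7 days; deaths and survival time recorded over 14 d observation.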

[16] = Serum stability assay (residual level by RP-HPLC); settings: human
rabbit red blood cells = format: cell-based; settings: red cells of rabbit, 1 h

| Compound | MIC Salmonella typhimurium ATCC 14028 [1] [µg/mL] | MIC Candida utilis ATCC 9950 (Candida utilis ATCC 9950) [µg/mL] | MIC Corynebacterium ATCC 7715 [2] [µg/mL] | MIC Candida krusei ATCC 6258 (Candida krusei ATCC 6258) [µg/mL] | MIC Serratia marcescens ATCC 29021 [3] [µg/mL] | MIC Candida tropicalis ATCC 750 [4] [µg/mL] | MIC Bacillus subtilis ATCC 6633 [5] [µg/mL] | MIC Candida albicans ATCC MYA-2876 [6] [µg/mL] | MIC Trichophyton ATCC MYA-4438 [7] [µg/mL] | MIC Klebsiella pneumoniae ATCC 700603 [8] [µg/mL] | MIC Escherichia coli ATCC 25922 [9] [µg/mL] | MIC Pseudomonas aeruginosa ATCC 27853 [10] [µg/mL] | MIC Staphylococcus aureus ATCC 25923 [11] [µg/mL] | MIC Enterococcus ATCC 29212 (Enterococcus ATCC 29212) [µg/mL] | MIC Candida glabrata ATCC 15126 [12] [µg/mL] | MIC Shigella flexneri ATCC 12022 [13] [µg/mL] | Trypsin MIC [14] [µg/mL] | Number of mice that died on each day after infection: day 4 ([15]; 1 mg/kg gavage) [Mouse] | Number of mice that died on each day after infection: day 5 ([15]; 1 mg/kg gavage) [Mouse] | Number of mice that died on each day after infection: day 6 ([15]; 1 mg/kg gavage) [Mouse] | also measured |
| --- | --- | --- | --- | --- | --- | --- | --- | --- | --- | --- | --- | --- | --- | --- | --- | --- | --- | --- | --- | --- | --- |
| CC(=O)N[C@H](CCCNC(=N)N)C(=O)N[C@H](CCCCN)C(=O)N[C@H](CCC(C)C)C(=O)N[C@H](CCC(C)C)C(=O)N[C@H](Cc1ccc2ccccc2c1)C(=O)N[C@H](CCCNC(=N)N)C(=O)N[C@H](CCC(C)C)C(=O)N[C@H](CCCCN)C(=O)N[C@H](Cc1ccc2ccccc2c1)C(=O)N[C@H](CCCNC(=N)N)C(=O)N[C@H](CCCCN)C(N)=O [LV-14] (Ac-[dR][dK][d(hLeu)][d(hLeu)][d2Nal][dR][d(hLeu)][dK][d2Nal][dR][dK]-NH2) | 4 (≈ 2.37 µM) | 4 (≈ 2.37 µM) | 8 (≈ 4.74 µM) | 16 (≈ 9.48 µM) | 8 (≈ 4.74 µM) | 8 (≈ 4.74 µM) | 2 (≈ 1.18 µM) | 16 (≈ 9.48 µM) | 8 (≈ 4.74 µM) | 4 (≈ 2.37 µM) | 2 (≈ 1.18 µM) | 4 (≈ 2.37 µM) | 2 (≈ 1.18 µM) | 4 (≈ 2.37 µM) | 4 (≈ 2.37 µM) | 4 (≈ 2.37 µM) | 1 | 1 | 2 | 1 | Number of mice that died on each day after infection: day 7 ([15]; 1 mg/kg gavage): 0 Mouse; Number of mice that died on each day after infection: day 8 ([15]; 1 mg/kg gavage): 1 Mouse; Average survival times (Days) ([15]; 1 mg/kg gavage): 9.8** Days; remaining at 12 h, 0.91 mg/mL [16]: 97.1%; MHC (minimum hemolytic concentration, lowest concentration causing 10% hemolysis) (rabbit red blood cells): >1000 µg/mL |
| CC(=O)N[C@H](CCCNC(=N)N)C(=O)N[C@H](CCCCN)C(=O)N[C@H](C)C(=O)N[C@H](C)C(=O)N[C@H](Cc1ccc2ccccc2c1)C(=O)N[C@H](CCCNC(=N)N)C(=O)N[C@H](C)C(=O)N[C@H](CCCCN)C(=O)N[C@H](Cc1ccc2ccccc2c1)C(=O)N[C@H](CCCNC(=N)N)C(=O)N[C@H](CCCCN)C(N)=O [LV-15] (Ac-[dR][dK][dA][dA][d2Nal][dR][dA][dK][d2Nal][dR][dK]-NH2) | 2 (≈ 1.32 µM) | 8 (≈ 5.26 µM) | 8 (≈ 5.26 µM) | 4 (≈ 2.63 µM) | 8 (≈ 5.26 µM) | 8 (≈ 5.26 µM) | 4 (≈ 2.63 µM) | 8 (≈ 5.26 µM) | 8 (≈ 5.26 µM) | 4 (≈ 2.63 µM) | 2 (≈ 1.32 µM) | 4 (≈ 2.63 µM) | 2 (≈ 1.32 µM) | 4 (≈ 2.63 µM) | 4 (≈ 2.63 µM) | 2 (≈ 1.32 µM) | 1 | 1 | 3 | 0 | Number of mice that died on each day after infection: day 7 ([15]; 1 mg/kg gavage): 1 Mouse; Number of mice that died on each day after infection: day 8 ([15]; 1 mg/kg gavage): 0 Mouse; Average survival times (Days) ([15]; 1 mg/kg gavage): 9.6** Days; remaining at 12 h, 0.91 mg/mL [16]: 97.3%; MHC (minimum hemolytic concentration, lowest concentration causing 10% hemolysis) (rabbit red blood cells): >1000 µg/mL |
| CC(=O)N[C@H](CCCNC(=N)N)C(=O)N[C@H](CCCCN)C(=O)N[C@@H](C(=O)N[C@@H](C(=O)N[C@H](Cc1ccc2ccccc2c1)C(=O)N[C@H](CCCNC(=N)N)C(=O)N[C@@H](C(=O)N[C@H](CCCCN)C(=O)N[C@H](Cc1ccc2ccccc2c1)C(=O)N[C@H](CCCNC(=N)N)C(=O)N[C@H](CCCCN)C(N)=O)C(C)C)C(C)C)C(C)C [LV-16] (Ac-[dR][dK][dV][dV][d2Nal][dR][dV][dK][d2Nal][dR][dK]-NH2) | 2 (≈ 1.25 µM) | 8 (≈ 4.99 µM) | 2 (≈ 1.25 µM) | 4 (≈ 2.49 µM) | 4 (≈ 2.49 µM) | 4 (≈ 2.49 µM) | 4 (≈ 2.49 µM) | 8 (≈ 4.99 µM) | 8 (≈ 4.99 µM) | 2 (≈ 1.25 µM) | 1 (≈ 0.623 µM) | 4 (≈ 2.49 µM) | 1 (≈ 0.623 µM) | 2 (≈ 1.25 µM) | 16 (≈ 9.97 µM) | 2 (≈ 1.25 µM) | 1 | 1 | 1 | 1 | Number of mice that died on each day after infection: day 7 ([15]; 1 mg/kg gavage): 0 Mouse; Number of mice that died on each day after infection: day 8 ([15]; 1 mg/kg gavage): 2 Mouse; Average survival times (Days) ([15]; 1 mg/kg gavage): 10.1*** Days; remaining at 12 h, 0.91 mg/mL [16]: 98.4%; MHC (minimum hemolytic concentration, lowest concentration causing 10% hemolysis) (rabbit red blood cells): >1000 µg/mL |
| CC(=O)N[C@H](CCCCN)C(=O)N[C@H](CCCCN)C(=O)N[C@H](CC(C)C)C(=O)N[C@H](CC(C)C)C(=O)N[C@H](Cc1ccc2ccccc2c1)C(=O)N[C@H](CCCCN)C(=O)N[C@H](CC(C)C)C(=O)N[C@H](CCCCN)C(=O)N[C@H](Cc1ccc2ccccc2c1)C(=O)N[C@H](CCCCN)C(=O)N[C@H](CCCCN)C(N)=O [LV-17] (Ac-[dK][dK][dL][dL][d2Nal][dK][dL][dK][d2Nal][dK][dK]-NH2) | 4 (≈ 2.56 µM) | 16 (≈ 10.2 µM) | 2 (≈ 1.28 µM) | 8 (≈ 5.12 µM) | 2 (≈ 1.28 µM) | 8 (≈ 5.12 µM) | 4 (≈ 2.56 µM) | 8 (≈ 5.12 µM) | 8 (≈ 5.12 µM) | 4 (≈ 2.56 µM) | 1 (≈ 0.64 µM) | 1 (≈ 0.64 µM) | 1 (≈ 0.64 µM) | 2 (≈ 1.28 µM) | 8 (≈ 5.12 µM) | 4 (≈ 2.56 µM) | 1 | 1 | 0 | 2 | Number of mice that died on each day after infection: day 4 ([15]; 0.2 mg/kg gavage): 1 Mouse; Number of mice that died on each day after infection: day 5 ([15]; 0.2 mg/kg gavage): 2 Mouse; Number of mice that died on each day after infection: day 6 ([15]; 0.2 mg/kg gavage): 1 Mouse; Number of mice that died on each day after infection: day 7 ([15]; 0.2 mg/kg gavage): 1 Mouse; Number of mice that died on each day after infection: day 8 ([15]; 0.2 mg/kg gavage): 2 Mouse; Average survival times (Days) ([15]; 0.2 mg/kg gavage): 8.5** Days; Number of mice that died on each day after infection: day 7 ([15]; 1 mg/kg gavage): 1 Mouse; Number of mice that died on each day after infection: day 8 ([15]; 1 mg/kg gavage): 0 Mouse; Average survival times (Days) ([15]; 1 mg/kg gavage): 10.7*** Days; Number of mice that died on each day after infection: day 4 ([15]; 5 mg/kg gavage): 2 Mouse; Number of mice that died on each day after infection: day 5 ([15]; 5 mg/kg gavage): 1 Mouse; Number of mice that died on each day after infection: day 6 ([15]; 5 mg/kg gavage): 0 Mouse; Number of mice that died on each day after infection: day 7 ([15]; 5 mg/kg gavage): 1 Mouse; Number of mice that died on each day after infection: day 8 ([15]; 5 mg/kg gavage): 1 Mouse; Average survival times (Days) ([15]; 5 mg/kg gavage): 9.8** Days; survival time of mice infected with Escherichia coli ([15]; gavage, observed 14 d): superior to those of the Levofloxacin group; remaining at 12 h, 0.91 mg/mL [16]: 97.2%; MHC (minimum hemolytic concentration, lowest concentration causing 10% hemolysis) (rabbit red blood cells): >1000 µg/mL |
